The subject of test [1] is SW13 (Other Solid Carcinomas). The experiment in a line: combination Emax (second highest fraction inhibited in the dose matrix, 72 h); higher = more inhibition; extreme values may be limits of the assay. Summed up:
(§1)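 Cell lines in DMEM/F12 or RPMI with 10% FBS were plated in 1536-well plates, held 24 hours at 37°C, 5% CO2, then given two-drug dose matrices for 72 hours (DMSO typically 0.2%). Viability was read by CellTiter-Glo 2.0 luminescence and scaled as inhibition from 0 (vehicle wells) to 1 (blank wells). Combination Emax is the second-highest inhibition in the matrix; Bliss excess is observed combination effect minus expected EA + EB − EA·EB, EA and EB being single-agent effects.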

In test [2] the test system is Ca9-22 (Head and Neck Carcinoma). The experiment in a line: Bliss excess, mean over the matrix (fraction); higher = more synergy. Summed up:
as §1

The test system of test [3] is VA-ES-BJ (Other Solid Carcinomas). The description is as above. Summed up: as §1
Test [4] has as its system HGC-27 (Gastric Carcinoma). The test is described as above. In a few lines: as §1
The subject of test [5] is NB69 (Neuroblastoma). The test is described as above. In a few lines: as §1
Test [6] concerns YH-13 (Glioblastoma). Described as above. Summed up: as §1
Test [7] deals with TE-1 (Esophageal Squamous Cell Carcinoma). The test is described as above. In a few lines:
as §1

Test [8] relates to ACHN (Kidney Carcinoma). The test is described as above. In a few lines: as §1
In test [9] the test system is PANC-04-03 (Pancreatic Carcinoma). The test is described as above. In a few lines: as §1
For test [10], the system named is TK10 (Kidney Carcinoma). The test is described as above. In a few lines: as §1
For test [11], the system named is NEC8 (Other Solid Carcinomas). The description is as above. Summed up: as §1
The subject of test [12] is KMOE-2 (Acute Myeloid Leukemia). The test is described as above. In a few lines:
as §1

Test [13] deals with PWR-1E (Non-Cancerous). The description is as above. Summed up: as §1
The subject of test [14] is MIA-PaCa-2 (Pancreatic Carcinoma). The description is as above. In a few lines:
as §1

Test [15] concerns Caov-4 (Ovarian Carcinoma). The description is as above. Summed up:
as §1

Test [16] has as its system EoL-1-cell (Acute Myeloid Leukemia). The test is described as above. Summed up:
as §1

For test [17], the system named is SU8686 (Pancreatic Carcinoma). The description is as above. Summed up:
as §1

For test [18], the system named is NUGC-3 (Gastric Carcinoma). The test is described as above. In a few lines: as §1
For test [19], the system named is HOP-62 (Lung Adenocarcinoma). Described as above. In a few lines: as §1
Test [20] has as its system NCI-H358 (Lung Adenocarcinoma). Described as above. In a few lines:
as §1

The structures appear in SMILES notation.
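Throughout, for Bliss excess, mean over the matrix: after 72 h of two-drug dosing.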

Regarding `CC(=O)c1c(C)c2cnc(Nc3ccc(N4CCNCC4)cn3)nc2n(C2CCCC2)c1=O` [Palbociclib] + Cn1cnc2c(F)c(Nc3ccc(Br)cc3Cl)c(C(=O)NOCCO)cc21 [Selumetinib] (first compound max 10 µM, 7x7, partner max 10 µM), in test [1], the “combination Emax” value stood at 0.444. For the same compound, the Bliss excess was 0.0539 in test [2]; -0.0518 in test [3]; 0.0403 in test [4]; 0.0829 in [5]; 0.0093 in [6]; 0.0048 in test [7]. Moreover, the Bliss excess in test [8] is 0.0146; in test [9], -0.0213; in test [10] it was 0.0072; in test [11] it was -0.0233; in test [12] it was -0.0028; in [13] it was -0.0609. Moreover, the Bliss excess in test [14] is 0.0413; in test [15], -0.0247; in test [16], 0.112; in test [17] it was -0.0971; in [18], -0.0178; in [19], -0.0079. Besides, the Bliss excess in test [20] is -0.0489.

Consider `COc1cccc(OCCCN)c1-c1cc(Nc2cnc(C#N)cn2)n[nH]1` [Prexasertib] + C=CCn1c(=O)c2cnc(Nc3ccc(N4CCN(C)CC4)cc3)nc2n1-c1cccc(C(C)(C)O)n1 [AZD1775] (first compound max 1 µM, partner max 1 µM), for which the “combination Emax” value in test [1] worked out at 0.526. Also, the Bliss excess in test [2] was found to be 0.0833; in test [3], 0.12; in [4] it was 0.108; in test [5], 0.0657; in test [6], 0.0439; in [7], 0.0112. The Bliss excess in test [8] is -0.0133; in test [9], 0.0208; in test [10] it was 0.0018; in [11], 0.122; in test [12], 0.0637; in test [13] it was 0.0706. Besides, the Bliss excess in test [14] is 0.143; in test [15] it was 0.007; in test [16], 0.0565; in test [17], 0.0024; in [18], 0.0979; in [19] it was 0.0474. Besides, the Bliss excess in [20] was -0.0027.

As for `COc1cccc(OCCCN)c1-c1cc(Nc2cnc(C#N)cn2)n[nH]1` [Prexasertib] + CCc1c2c(nc3ccc(O)cc13)-c1cc3c(c(=O)n1C2)COC(=O)[C@]3(O)CC [SN-38] (first compound max 1 µM, 7x7, partner max 0.3 µM), the “combination Emax” value in [1] is 0.996. The Bliss excess in [2] was 0.0163; in test [3] it was -0.044; in test [4], 0.0388; in test [5], -0.0556; in test [6], 0.0079; in test [7] it was -0.0025. Moreover, the Bliss excess was -0.0755 in test [8]; -0.067 in [9]; -0.0257 in test [10]; 0.0129 in [11]; 0.0296 in [12]; 0.0309 in test [13]. Besides, the Bliss excess in [14] was 0.0334; in test [15], -0.0332; in [16] it was -0.0317; in test [17] it was 0.02; in [18], 0.0136; in test [19] it was -0.0279. Further, the Bliss excess in test [20] is -0.0212.

Consider `COc1cccc(OCCCN)c1-c1cc(Nc2cnc(C#N)cn2)n[nH]1` [Prexasertib] + CN(C)CCCOc1ccc(-c2ccc3ncc4c(c3c2)n(C2CCOCC2)c(=O)n4C)cn1 [AZD0156] (first compound max 1 µM, 7x7, partner max 1 µM), for which the “combination Emax” value in test [1] came out at 0.322. The Bliss excess in test [2] was -0.0123; in test [3], -0.0395; in test [4], -0.0193; in test [5], 0.0064; in test [6], -0.0203; in test [7] it was -0.0356. Further, the Bliss excess in [8] is -0.0318; in test [9], -0.0328; in test [10], -0.0239; in test [11], -0.009; in test [12] it was -0.0363; in test [13] it was -0.0276. The Bliss excess in test [14] was -0.0391; in test [15], 0.0056; in test [16] it was -0.0145; in test [17], -0.0068; in [18], 0.0083; in [19], -0.0042. Further, the Bliss excess in [20] is -0.034.

As for `COc1cccc(OCCCN)c1-c1cc(Nc2cnc(C#N)cn2)n[nH]1` [Prexasertib] + C[C@@H]1COCCN1C2=NC(=NC(=C2)C3(CC3)[S@](=N)(=O)C)C4=C5C=CNC5=NC=C4 [AZD6738] (first compound max 1 µM, 7x7, partner max 10 µM), in test [1], the “combination Emax” value worked out at 0.519. In addition, the Bliss excess in test [2] is -0.0024; in [3], -0.0114; in [4], -0.057; in test [5], -0.0228; in [6], -0.018; in test [7], -0.0617. For the same compound, the Bliss excess was -0.0503 in test [8]; 0.0017 in test [9]; 0.0238 in [10]; -0.009 in test [11]; -0.0043 in [12]; 0.0243 in test [13]. In addition, the Bliss excess in [14] is -0.105; in test [15], -0.0123; in test [16], -0.0109; in test [17], -0.0315; in test [18] it was -0.019; in test [19], 0.0375. For the same compound, the Bliss excess in test [20] is -0.021.

On to `COc1cccc(OCCCN)c1-c1cc(Nc2cnc(C#N)cn2)n[nH]1` [Prexasertib] + Cc1cc2ncnn2cc1Nc1ncc2c(n1)n(C1CCOCC1)c(=O)n2C [AZD7648] (first compound max 1 µM, 7x7, partner max 10 µM), for which the “combination Emax” value in test [1] is 0.492. Further, the Bliss excess in test [2] is -0.0231; in test [3] it was 0.013; in [4], -0.0235; in test [5] it was 0.0182; in test [6] it was -0.0146; in test [7], -0.0266. For the same compound, the Bliss excess in [8] is -0.0182; in test [9], -0.0327; in test [10] it was 0.0053; in test [11] it was 0; in [12], 0.0172; in test [13], -0.0243. Further, the Bliss excess in [14] is -0.0172; in test [15], -0.0361; in test [16], -0.0003; in test [17], -0.0227; in test [18], -0.0129; in test [19], -0.0063. The Bliss excess in [20] was -0.0438.

With `COc1cccc(OCCCN)c1-c1cc(Nc2cnc(C#N)cn2)n[nH]1` [Prexasertib] + O=C(c1cc(Cc2n[nH]c(=O)c3ccccc23)ccc1F)N1CCN(C(=O)C2CC2)CC1 [Olaparib] (first compound max 1 µM, 7x7, partner max 10 µM), the “combination Emax” value in test [1] was determined as 0.39. Also, the Bliss excess was -0.007 in [2]; -0.0337 in [3]; 0.044 in [4]; -0.0313 in test [5]; -0.0598 in test [6]; -0.11 in test [7]. For the same compound, the Bliss excess was -0.0857 in test [8]; -0.0415 in [9]; -0.0975 in test [10]; 0.0104 in test [11]; 0.0279 in test [12]; -0.211 in test [13]. Further, the Bliss excess in test [14] is -0.0781; in test [15] it was -0.0542; in test [16], -0.0146; in [17] it was -0.0504; in [18], -0.143; in test [19], -0.0319. Moreover, in test [20], the Bliss excess was -0.0809.

The values are drawn from the supplement of paper PMC11061612.
